Values quoted from earlier work, collected in paper PMC3172588 (Organic & Biomolecular Chemistry, 2010).
pEC50: −log10 of the molar value.

Legend:
[1] = test system: sea urchin cADPR receptor (sea urchin egg homogenate, SUH)
[2] = test system: T cell-cADPR receptor (permeabilised Jurkat T-cells, JTC); settings: class in words; ref [8],[17],[23],[36]

For 3-deaza cADPR, the “times more potent than cADPR in SUH” value ([1]; agonist, ref [20]) is listed as 70 times.

For 8-Cl-cADPcR [8-Cl-cADPcR (5)], the pEC50 ([1]; read-out: Activity in SUH: agonist EC50, Table 3, compounds synthesized by Shuto's group, ref [15],[38],[51],[52]) is given as 4.72.

In the case of `O=c1c2nc(Br)n3c2ncn1[C@@H]1O[C@H](COP(=O)(O)OP(=O)(O)OC[C@H]2O[C@@H]3[C@H](O)[C@@H]2O)[C@@H](O)[C@H]1O` [8-Bromo cIDPR], the “Activity in T cells / JTC (running text, literature)” value [2] is given as “agonist activity”.

For `[N-]=[N+]=Nc1nc2c(=N)n3cnc2n1C1OC(COP(=O)(O)OP(=O)(O)OCC2OC3C(O)C2O)C(O)C1O` (stereo not shown) [8-azido-cADPR], the “Activity in SUH (running text, literature)” value ([1]; class in words, ref [8],[13],[17],[23],[32],[36],[38]) is listed as “antagonists”.
